Drawing on patent US20190119282A1, “IMIDAZOPYRIDAZINES USEFUL AS INHIBITORS OF THE PAR-2 SIGNALING PATHWAY” (Vertex Pharmaceuticals Incorporated, priority 2013, published 2019), this text covers IC50 for 31 compounds.

The target in assay [1] is T1, PAR2 (HT-29 cells, SLIGKV activation) (Homo sapiens, UniProt P55085).
T1 construct: host or cells: HT-29 cells
T1 sequence (P55085 26-397): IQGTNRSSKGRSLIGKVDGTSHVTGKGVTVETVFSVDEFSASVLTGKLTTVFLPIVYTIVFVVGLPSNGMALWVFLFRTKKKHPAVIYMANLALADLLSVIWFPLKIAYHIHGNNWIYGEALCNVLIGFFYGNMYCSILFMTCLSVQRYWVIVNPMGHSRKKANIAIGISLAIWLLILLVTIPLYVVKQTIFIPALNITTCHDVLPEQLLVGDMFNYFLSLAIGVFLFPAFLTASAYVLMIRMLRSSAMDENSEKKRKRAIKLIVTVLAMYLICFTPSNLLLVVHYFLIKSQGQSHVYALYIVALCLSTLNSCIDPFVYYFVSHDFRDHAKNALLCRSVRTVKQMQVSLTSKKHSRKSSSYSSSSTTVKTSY
Kind of assay: Ca FLIPR TETRA assay, ANTAGONIST mode, stimulation with 8 μM SLIGKV. It is filed as cell-based. Conditions: HT-29 cells, stimulation with 8 μM SLIGKV. The method in brief:
(§1)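 HT-29 cells grown overnight in 1% FBS McCoy's medium were loaded with calcium 5 dye (45 min 37 °C, 15 min r.t.). Compounds were added and Ca2+ read for direct activation, then after 30 min at r.t. cells were stimulated with 8 μM SLIGKV, 1 U/mL thrombin, 3.1 U/mL trypsin or 0.6 μM UTP (final).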

The target of assay [2] is T2, PAR2 (HT-29 cells, trypsin activation) (Homo sapiens, UniProt P55085).
T2 construct: host or cells: HT-29 cells
T2 sequence (P55085 26-397): T1 sequence (P55085 26-397)
Kind of assay: Ca FLIPR TETRA assay, ANTAGONIST mode, stimulation with 3.1 U/mL trypsin. Conditions: HT-29 cells, stimulation with 3.1 U/mL trypsin. It is filed as cell-based. The method in brief: as §1

The test system of assay [3] is Thrombin-stimulated Ca2+ response in HT-29 cells. Kind of assay: Ca FLIPR TETRA assay, ANTAGONIST mode, stimulation with 1 U/mL Thrombin. Conditions: Homo sapiens; HT-29 cells, stimulation with 1 U/mL Thrombin. In kind it is cell-based, human. The method in brief:
as §1

Assay [4] has as its system UTP-stimulated Ca2+ response in HT-29 cells. The experiment in a line: Ca FLIPR TETRA assay, ANTAGONIST mode, stimulation with 0.6 μM UTP. In kind it is cell-based, human. Conditions: Homo sapiens; HT-29 cells, stimulation with 0.6 μM UTP. The method in brief: as §1

In the case of `CC(C)CC(O)C(=O)N1CCN(C(=O)c2cn3nc(-c4ccc(F)cc4)cc(C(C)C)c3n2)C[C@@H]1C` (stereo partly shown) [Compound I-109], the IC50 in assay [1] was 0.9 nM; in assay [2], 4 nM; in assay [3], 11000 nM; in assay [4] it was 10000 nM.

On to `CC(C)c1cc(-c2ccc(F)cc2)nn2cc(C(=O)N3CCN(C(=O)[C@@H](O)C(C)C)[C@@H](C)C3)nc12` [Compound I-110], for which the IC50 in assay [1] worked out at 110 nM; in assay [2], 1500 nM; in assay [3], 19000 nM; in assay [4] it was 18000 nM.

Regarding `CC(C)c1cc(-c2ccc(F)cc2)nn2cc(C(=O)N3CCN(C(=O)[C@H](O)C(C)C)[C@@H](C)C3)nc12` [Compound I-111], the IC50 came out at 7 nM in assay [1], 15 nM in assay [2], 20000 nM in assay [3] and 19000 nM in assay [4].

As to `CC(C)c1cc(-c2ccc(F)cc2)nn2cc(C(=O)N3CCN(C(=O)C(C)(C)O)[C@@H](C)C3)nc12` [Compound I-112], the IC50 in assay [1] turned out to be 2400 nM; in assay [2] it was 1000 nM; in assay [3], 38000 nM; in assay [4], 35000 nM.

Turning to `CC(C)c1cc(-c2ccc(F)cc2)nn2cc(C(=O)N3CCN(C(=O)C(O)Cc4ccccc4)[C@@H](C)C3)nc12` (stereo partly shown) [Compound I-113], the 50% inhibitory concentration (IC50) was found to be 0.8 nM in assay [1], 3 nM in assay [2], 8400 nM in assay [3] and 7200 nM in assay [4].

As to `CC(C)c1cc(-c2ccc(F)cc2)nn2cc(C(=O)N3CCN(C(=O)[C@H](O)C4CCCCC4)[C@@H](C)C3)nc12` [Compound I-114], the IC50 was 0.5 nM in assay [1], 0.6 nM in assay [2], 7700 nM in assay [3] and 8700 nM in assay [4].

Regarding `CC(C)c1cc(-c2ccc(F)cc2)nn2cc(C(=O)N3CCN(C(=O)C4(O)CC4)[C@@H](C)C3)nc12` [Compound I-115], the IC50 is 100 nM in assay [1], 160 nM in assay [2], more than 50000 nM in assay [3] and more than 50000 nM in assay [4].

With `CC(C)c1cc(-c2ccc(F)cc2)nn2cc(C(=O)N3CCN(C(=O)C(O)C(C)C)[C@@H](C)C3)nc12` (stereo partly shown) [Compound I-116], the half-maximal inhibitory concentration (IC50) was found to be 12 nM in assay [1], 72 nM in assay [2], 19000 nM in assay [3] and 22000 nM in assay [4].

Take `CC(C)c1cc(-c2ccc(F)cc2)nn2cc(C(=O)N3CCN(C(=O)C(O)c4ccccc4)[C@@H](C)C3)nc12` (stereo partly shown) [Compound I-117]: the IC50 in assay [1] amounted to 0.3 nM; in assay [2], 0.9 nM; in assay [3], 9600 nM; in assay [4] it was 8100 nM.

For the compound `CC[C@@H](O)C(=O)N1CCN(C(=O)c2cn3nc(-c4ccc(F)cc4)cc(C(C)C)c3n2)C[C@@H]1C` [Compound I-118], the half-inhibitory concentration (IC50) came out at 16 nM in assay [1], 1000 nM in assay [2], 31000 nM in assay [3] and 27000 nM in assay [4].

For the compound `CC(O)C(=O)N1CCN(C(=O)c2cn3nc(-c4ccc(F)cc4)cc(C(C)C)c3n2)C[C@@H]1C` (stereo partly shown) [Compound I-119], the 50% inhibitory concentration (IC50) is 200 nM in assay [1], 2100 nM in assay [2], more than 50000 nM in assay [3] and more than 50000 nM in assay [4].

In the case of `CC(C)c1cc(-c2ccc(F)cc2)nn2cc(C(=O)N3CCOCC3(C)C)nc12` [Compound I-120], the IC50 in assay [1] came to 130 nM; in assay [2] it was 1000 nM; in assay [3] it was 20000 nM; in assay [4] it was 24000 nM.

Regarding `CC(C)c1cc(-c2ccc(F)cc2)nn2cc(C(=O)N3CCN(C(=O)CC4CCCC4)[C@@H](C)C3)nc12` [Compound I-121], the IC50 was 4 nM in assay [1], 7 nM in assay [2], 9200 nM in assay [3] and more than 500 nM in assay [4].

On to `CC(C)CC(=O)N1CCN(C(=O)c2cn3nc(-c4ccc(F)cc4)cc(C(C)C)c3n2)C[C@@H]1C` [Compound I-122], for which the IC50 in assay [1] amounted to 7 nM; in assay [2], 23 nM; in assay [3] it was 10000 nM; in assay [4], 10000 nM.

Turning to `CC(O)CC(=O)N1CCN(C(=O)c2cn3nc(-c4ccc(F)cc4)cc(C(C)C)c3n2)C[C@@H]1C` (stereo partly shown) [Compound I-123], the IC50 in assay [1] is 200 nM; in assay [2], 340 nM; in assay [3] it was more than 50000 nM; in assay [4], more than 50000 nM.

On to `CCCC(=O)N1CCN(C(=O)c2cn3nc(-c4ccc(F)cc4)cc(C(C)C)c3n2)C[C@@H]1C` [Compound I-124], for which the IC50 came out at 26 nM in assay [1], 160 nM in assay [2], 15000 nM in assay [3] and 13000 nM in assay [4].

As to `CC(C)c1cc(-c2ccc(F)cc2)nn2cc(C(=O)N3CCN(C(=O)Cc4ccsc4)[C@@H](C)C3)nc12` [Compound I-125], the half-maximal inhibitory concentration (IC50) is 2 nM in assay [1], 5 nM in assay [2], more than 500 nM in assay [3] and more than 500 nM in assay [4].

In the case of `C#CCCC(=O)N1CCN(C(=O)c2cn3nc(-c4ccc(F)cc4)cc(C(C)C)c3n2)C[C@@H]1C` [Compound I-126], the IC50 in assay [1] came to 25 nM; in assay [2], 210 nM; in assay [3] it was 13000 nM; in assay [4] it was 13000 nM.

Regarding `CC(C)CCC(=O)N1CCN(C(=O)c2cn3nc(-c4ccc(F)cc4)cc(C(C)C)c3n2)C[C@@H]1C` [Compound I-127], the IC50 in assay [1] is 2 nM; in assay [2], 4 nM; in assay [3] it was 6500 nM; in assay [4], 5400 nM.

As for `CC(C)c1cc(-c2ccc(F)cc2)nn2cc(C(=O)N3CCN(C(=O)CC4CCCCC4)[C@@H](C)C3)nc12` [Compound I-128], the IC50 in assay [1] was 2 nM; in assay [2], 2 nM; in assay [3], 30000 nM; in assay [4] it was 31000 nM.

Turning to `COCCC(=O)N1CCN(C(=O)c2cn3nc(-c4ccc(F)cc4)cc(C(C)C)c3n2)C[C@@H]1C` [Compound I-129], the 50% inhibitory concentration (IC50) in assay [1] came to 120 nM; in assay [2], 500 nM; in assay [3] it was 41000 nM; in assay [4] it was 37000 nM.

On to `CC(C)c1cc(-c2ccc(F)cc2)nn2cc(C(=O)N3CCN(C(=O)CC(C)(C)C)[C@@H](C)C3)nc12` [Compound I-130], for which the IC50 came to 2 nM in assay [1], 6 nM in assay [2], 4500 nM in assay [3] and 5000 nM in assay [4].

Regarding `CC(C)c1cc(-c2ccc(F)cc2)nn2cc(C(=O)N3CCN(C(=O)CC(C)(C)O)[C@@H](C)C3)nc12` [Compound I-131], the IC50 in assay [1] was found to be 67 nM; in assay [2], 650 nM; in assay [3] it was 33000 nM; in assay [4] it was 32000 nM.

On to `COc1cccc(CC(=O)N2CCN(C(=O)c3cn4nc(-c5ccc(F)cc5)cc(C(C)C)c4n3)C[C@@H]2C)c1` [Compound I-132], for which the IC50 in assay [1] is 3 nM; in assay [2], 5 nM; in assay [3], more than 500 nM; in assay [4] it was more than 500 nM.

In the case of `COc1ccc(CC(=O)N2CCN(C(=O)c3cn4nc(-c5ccc(F)cc5)cc(C(C)C)c4n3)C[C@@H]2C)cc1` [Compound I-133], the 50% inhibitory concentration (IC50) was 1 nM in assay [1], 6 nM in assay [2], 36000 nM in assay [3] and more than 500 nM in assay [4].

`Cc1cc(C)n(CCC(=O)N2CCN(C(=O)c3cn4nc(-c5ccc(F)cc5)cc(C(C)C)c4n3)C[C@@H]2C)n1` [Compound I-134]: the half-inhibitory concentration (IC50) in assay [1] turned out to be 12 nM; in assay [2], 280 nM; in assay [3], 10000 nM; in assay [4] it was 7900 nM.

`CC(C)c1cc(-c2ccc(F)cc2)nn2cc(C(=O)N3CCN(C(=O)CCn4cccn4)[C@@H](C)C3)nc12` [Compound I-135]: the IC50 in assay [1] was 22 nM; in assay [2], 220 nM; in assay [3], 16000 nM; in assay [4] it was 17000 nM.

Take `Cc1noc(C)c1CCC(=O)N1CCN(C(=O)c2cn3nc(-c4ccc(F)cc4)cc(C(C)C)c3n2)C[C@@H]1C` [Compound I-136]: the IC50 in assay [1] was 7 nM; in assay [2] it was 34 nM; in assay [3], more than 5000 nM; in assay [4], 7700 nM.

For `CC(C)c1cc(-c2ccc(F)cc2)nn2cc(C(=O)N3CCN(C(=O)CCN4CCCCC4=O)[C@@H](C)C3)nc12` [Compound I-137], the IC50 was 42 nM in assay [1], 240 nM in assay [2], 43000 nM in assay [3] and 40000 nM in assay [4].

Turning to `CC(C)c1cc(-c2ccc(F)cc2)nn2cc(C(=O)N3CCN(C(=O)CCC(F)(F)F)[C@@H](C)C3)nc12` [Compound I-138], the IC50 in assay [1] is 11 nM; in assay [2], 52 nM; in assay [3], more than 5000 nM; in assay [4] it was more than 5000 nM.

With `CC(C)CCCC(=O)N1CCN(C(=O)c2cn3nc(-c4ccc(F)cc4)cc(C(C)C)c3n2)C[C@@H]1C` [Compound I-139], the half-inhibitory concentration (IC50) in assay [1] is 2 nM; in assay [2], 9 nM; in assay [3], 25000 nM; in assay [4] it was more than 500 nM.
